Source: patent EP0011400A1, “An aminoglycosidic antibiotic salt” (priority 1978, dated 1980)
Structures can show the parent of a compound that is named as a salt.

Experiments:
Male Hartley guinea pigs [1] = assay: Example 8: toxicity of tobramycin and bekanamycin salts on intramuscular injection (deaths, pinna reflex); assay type: in vivo; settings: for Pinna Reflex Lost: * including dead cases; for Number died/ Number tested: guinea pigs, intramuscular
Experimental: The second group was injected with a solution of tobramycin sulfate in water for injection in an equal dose. […] After injection with the final dose, the pinna reflex of each subject guinea pig to a pure tone having a frequency of 15,000 Hz was determined. […] Both group were then subjected to determination of their pinna reflex to a 15,000^-Hz pure tone.

Male Hartley guinea pigs [2] = assay: Example 7: toxicity of dibekacin salts on intramuscular injection for 21 days (deaths, pinna reflex, BUN); assay type: in vivo; settings: for Number of guinea pigs which lost pinna reflex 10days / Number of guinea pigs which lost pinna reflex 14days / Number of guinea pigs which lost pinna reflex 17days / Number of guinea pigs which lost pinna reflex 21days: 180 mg (as a free base)/kg/day intramuscular, 20,000 Hz pure tone; for Number of guinea pigs which lost pinna reflex 21days: * including dead cases; for Number died/ Number tested: guinea pigs, intramuscular, 21 consecutive days; for Number died/ Number tested / BUN: 180 mg (as a free base)/kg/day; for BUN: sera, 24 hours after final dose; for Number of guinea pigs which lost pinna reflex 21days / BUN: 21 days
Experimental: The second group was injected with an equal dose of a solution of dibekacin sulfate in water for injection. […] During the intramuscu]ar injection, the pinna reflex of each subject guinea pig to a pure tone having a frequency of 20,000 Hz was determined. Twenty-four hours after the injection with the final dose, the level of BUN in sera was measured.

[3] = test system: Pseudomonas aeruginosa E-2; assay: Example 10: survival of mice infected intraperitoneally; assay type: in vivo; settings: ICR-JCL mice, intramuscular; for Percentage Survival (%) Dosage 0.0625 mg: 0.0625 mg (as a free base)/mouse; for Percentage Survival (%) Dosage 0.0625 mg / Percentage Survival (%) Dosage 0.25 mg / Percentage Survival (%) Dosage 1 mg: one week after the injection; for Percentage Survival (%) Dosage 1 mg: 1 mg (as a free base)/mouse; for ED50: Pseudomonas aeruginosa, E2, im, 168 h, calculated by Ritchfield-Wilcoxon technique, the two values not significantly different
Experimental: The second group was injected with a solutio of dibekacin sulfate in sterile physiological saline solution in the above indicated doses. […] The percentage survival of each group was checked one week after the injection.

[4] = Solubility of the salt powder in water and organic solvents; assay type: physicochemical
Male Hartley guinea pigs [5] = assay: Example 9: toxicity of kanamycin A salts on intramuscular injection for 14 days (deaths, pinna reflex, BUN); assay type: in vivo; settings: 400 mg (as a free base)/kg/day, 14 consecutive days
Experimental: The second group was injected with a solution of kanamycin A sulfate in water for injection in an equal dose. The third group was injected with a solution of a mixture of kanamycin A sulfate and potassium salt of D-glucaro-1,5-lactam (in a molar ratio of […]) in water for injection in an eaual dose.

[6] = pH of an aqueous solution of the salt; assay type: physicochemical
Male Hartley guinea pigs [7] = assay: Example 6: toxicity of gentamicin salts on intramuscular injection for 14 days (deaths, pinna reflex, BUN, CRE); assay type: in vivo; settings: 100 mg (as a free base)/kg/day; for CRE: creatine in sera; for CRE / BUN: 24 hours after the pinna reflex determination; for Number died/ Number tested: 14 consecutive days; for BUN: sera
Experimental: The amount of the test compounds administered was calculated on the basis of the free base (i.e., free gentamicin). […] The second group was injected with an equal dose of a solution of gentamicin sulfate in water for injection. […] After injection with the final dose, each group was subjected to a pure tone having a frequency of 20,000 Hz to determine the pinna reflex of the subject guinea pigs. Twenty-four hours after the determination, the levels of blood urea nitrogen (BUN) and creatine (CRE) in sera were measured.

Male Hartley guinea pigs [8] = assay: Example 11: pinna reflex after intramuscular injection of gentamicin salts for 21 days; settings: 80 mg (as a free base)/kg/day, 20,000 Hz pure tone after final dose
Experimental: Male Hartley guinea pigs weighing 300 g on average were used as the test animals in three groups each consisting of 6 guinea pigs which were subjected to intramuscular injection of the following substances for 21 consecutive days. The first group was injected with a solution of the salt of gentamicin and D-glucaro-1,5-lactam in water for injection in a dose of 80 mg (as a free base)/kg/day. The second group was injected with a solution of gentamicin sulfate in water for injection in an equal dose. The third group was a control which was injected with distilled water.

[9] = 250 mg (as a free base)/kg/day, 14 days, 15,000 Hz pure tone
[10] = 250 mg (as a free base)/kg/day, 14 consecutive days
[11] = 120 mg (as a free base)/kg/day, 16 days, 15,000 Hz pure tone after final dose
[12] = guinea pigs, intramuscular, 14 days, 20,000 Hz pure tone after final dose

With `NC[C@H]1O[C@H](O[C@H]2[C@H](O)[C@@H](O[C@H]3O[C@H](CO)[C@@H](O)[C@H](N)[C@H]3O)[C@H](N)C[C@@H]2N)[C@H](N)[C@@H](O)[C@@H]1O` [Bcanamycin sulfate, bekanamycin sulfate] the “Pinna Reflex Dull” value (Male Hartley guinea pigs [1]; [9]) was 1/4, the “Pinna Reflex Lost” value (Male Hartley guinea pigs [1]; [9]) was 3/4* and the “Number died/ Number tested” value (Male Hartley guinea pigs [1]; [10]) was 2/6.
In the case of `NCC1CCC(N)C(OC2C(N)CC(N)C(OC3OC(CO)C(O)C(N)C3O)C2O)O1` (stereo not shown) [Dibekacin sulfate, dibekacin sulfate, reference compound], the “Number of guinea pigs which lost pinna reflex 10days” value (Male Hartley guinea pigs [2]) is reported as 0/6, the “Number of guinea pigs which lost pinna reflex 14days” value (Male Hartley guinea pigs [2]) is reported as 3/6 and the “Number of guinea pigs which lost pinna reflex 17days” value (Male Hartley guinea pigs [2]) is reported as 3/6. The “Number of guinea pigs which lost pinna reflex 21days” value (Male Hartley guinea pigs [2]) was 5/6*, the “Number died/ Number tested” value (Male Hartley guinea pigs [2]) was 1/6 and the BUN (Male Hartley guinea pigs [2]) was 41.8 ± 26.9 mg/dL. The “Percentage Survival (%) Dosage 0.0625 mg” value [3] was 0%, the “Percentage Survival (%) Dosage 0.25 mg” value [3] was 30% and the “Percentage Survival (%) Dosage 1 mg” value [3] was 100%. The ED50 [3] was 15.7 mg/kg.
In the case of `NC[C@H]1O[C@H](O[C@H]2[C@H](O)[C@@H](O[C@H]3O[C@H](CO)[C@@H](O)[C@H](N)[C@H]3O)[C@H](N)C[C@@H]2N)[C@H](N)[C@@H](O)[C@@H]1O` [Glucarolactam salt of bekanamycin, Salt of bekanamycin and D-glucaro-1,5-lactam], the “Pinna Reflex Dull” value (Male Hartley guinea pigs [1]; [9]) is reported as 3/6, the “Pinna Reflex Lost” value (Male Hartley guinea pigs [1]; [9]) is reported as 3/6 and the “Number died/ Number tested” value (Male Hartley guinea pigs [1]; [10]) is reported as 0/6. The “solubility in ethanol, acetone, ethyl acetate and chloroform” value (“solubility in ethanol, acetone” below) [4] was “very slightly soluble” and the solubility in water [4] was “freely soluble”.
In the case of `NC[C@@H]1CC[C@@H](N)[C@@H](O[C@H]2[C@H](O)[C@@H](O[C@H]3O[C@H](CO)[C@@H](O)[C@H](N)[C@H]3O)[C@H](N)C[C@@H]2N)O1` [Glucarolactam salt of dibekacin, Salt of dibekacin and D-glucaro-1,5-lactam], the “Number of guinea pigs which lost pinna reflex 10days” value (Male Hartley guinea pigs [2]) is reported as 0/6, the “Number of guinea pigs which lost pinna reflex 14days” value (Male Hartley guinea pigs [2]) is reported as 0/6 and the “Number of guinea pigs which lost pinna reflex 17days” value (Male Hartley guinea pigs [2]) is reported as 0/6. The “Number of guinea pigs which lost pinna reflex 21days” value (Male Hartley guinea pigs [2]) was 3/6, the “Number died/ Number tested” value (Male Hartley guinea pigs [2]) was 0/6 and the BUN (Male Hartley guinea pigs [2]) was 35.7 ± 13.3 mg/dL. For the same compound, the “Percentage Survival (%) Dosage 0.0625 mg” value [3] was 0%, the “Percentage Survival (%) Dosage 0.25 mg” value [3] was 20% and the “Percentage Survival (%) Dosage 1 mg” value [3] was 100%. For the same compound, the ED50 [3] was 19.1 mg/kg, the “solubility in ethanol, acetone” value [4] was “very slightly soluble” and the solubility in methanol [4] was “sparingly soluble”. For the same compound, the solubility in water [4] was “freely soluble”.
For `NC[C@H]1O[C@H](O[C@H]2[C@H](O)[C@@H](O[C@H]3O[C@H](CO)[C@@H](O)[C@H](N)[C@H]3O)[C@H](N)C[C@@H]2N)[C@H](O)[C@@H](O)[C@@H]1O` [Glucarolactam salt of kanamycin, Salt of kanamycin A and D-glucaro-1,5-lactam], the “Number died/ Number tested” value (Male Hartley guinea pigs [5]) was 0/6, the “solubility in ethanol, acetone” value [4] was “very slightly soluble” and the solubility in water [4] was “freely soluble”.
With `NC[C@H]1O[C@H](O[C@H]2[C@H](O)[C@@H](O[C@H]3O[C@H](CO)[C@@H](O)[C@H](N)[C@H]3O)[C@H](N)C[C@@H]2N)[C@H](O)[C@@H](O)[C@@H]1O` [Kanamycin sulfate, kanamycin A sulfate, reference compound] the “Number died/ Number tested” value (Male Hartley guinea pigs [5]) was 0/6.
In the case of `NCC1OC(OC2C(N)CC(N)C(OC3OC(CO)C(O)C(N)C3O)C2O)C(N)CC1O` (stereo not shown) [Tobramycin sulfate, tobramycin sulfate], the “Pinna Reflex Dull” value (Male Hartley guinea pigs [1]; [11]) is reported as 2/9, the “Pinna Reflex Normal” value (Male Hartley guinea pigs [1]; [11]) is reported as 7/9 and the “Number died/ Number tested” value (Male Hartley guinea pigs [1]; 120 mg (as a free base)/kg/day, 16 consecutive days) is reported as 0/9.
In the case of “Salt of gentamicin and D-glucaro-1,5-lactam [Glucarolactam salt of gentamicin]”, the “pH of an aqueous solution of the salt” value [6] is reported as 6.7, the CRE (Male Hartley guinea pigs [7]; 14 days) is reported as 1.20±0.51 and the “Number died/ Number tested” value (Male Hartley guinea pigs [7]; guinea pigs, intramuscular) is reported as 2/9. For the same compound, the “Pinna Reflex Lost” value (Male Hartley guinea pigs [7]; [12]) was 1/7, the “Pinna Reflex Normal” value (Male Hartley guinea pigs [7]; [12]) was 6/7 and the BUN (Male Hartley guinea pigs [7]; 14 days) was 64.6 ± 43.97 mg/dL. The “solubility in ethanol, acetone” value [4] was “very slightly soluble”, the solubility in methanol [4] was “sparingly soluble” and the solubility in water [4] was “freely soluble”. The “Pinna Reflex Dull” value (Male Hartley guinea pigs [8]) was 2/6, the “Pinna Reflex Normal” value (Male Hartley guinea pigs [8]) was 3/6 and the “Pinna Reflex Lost” value (Male Hartley guinea pigs [8]; * including one guinea pig dead on the 21th day) was 1/6.
In the case of gentamicin sulfate [reference compound], the CRE (Male Hartley guinea pigs [7]; 14 days) is reported as 1.80±0.57, the “Number died/ Number tested” value (Male Hartley guinea pigs [7]; guinea pigs, intramuscular) is reported as 7/9 and the “Pinna Reflex Dull” value (Male Hartley guinea pigs [7]; [12]) is reported as 2/5. The “Pinna Reflex Lost” value (Male Hartley guinea pigs [7]; [12]) was 3/5 and the BUN (Male Hartley guinea pigs [7]; 14 days) was 92.3 ± 50.42 mg/dL.
